Assay: in vitro
Conditions: human, hepg2-a16-cd81egfp cells, % viability
Also: reference of the scale not given here.

Structure (SMILES) | viability at 3 µM [%]
CCC(=O)N1CCc2cc(Br)cc(S(=O)(=O)N3CCCCC3CC)c21 (stereo not shown) [MLS000936752] | 90.3
CC1CCN(S(=O)(=O)c2ccc3c(c2)C(=NO)c2cc(S(=O)(=O)N4CCC(C)CC4)ccc2-3)CC1 [MLS000551434] | 6.86
Cc1ccc(NC2=C/C(=N\S(=O)(=O)c3cccs3)c3ccccc3C2=O)cc1C [MLS000585841] | 81.7
Nc1nonc1-n1nnc(C(=O)N/N=C/c2ccc(Br)cc2)c1-c1ccc2c(c1)OCO2 [MLS001142619] | 89.5
O=S1(=O)N(CCN2CC=C(c3c[nH]c4cc(F)ccc34)CC2)c2cccc3c2N1CCC3 [NCGC00015600] | 76.3
COc1cc2nc(Nc3ccc(F)cc3)nc(N)c2cc1OC [NCGC00107353] | 92.7
COc1ccc(/C=N/Nc2cc(C)nc(-n3nc(C)cc3C)n2)c(OC)c1 [MLS000589396] | 91
Cc1ccnc(NC(=O)c2cccc(S(=O)(=O)N3CCCc4ccccc43)c2)c1 [MLS001159724] | 89.6
O=C1N(c2ccccc2C(F)(F)F)OC1(Cc1ccccc1)c1ccccc1 (stereo not shown) [MLS002206595] | 85
Cc1cc(OC(C)C(=O)NCCc2c[nH]c3ccccc23)c2c(C)cc(=O)oc2c1 (stereo not shown) [MLS001158613] | 92.7
Cc1nn2c(c1-c1ccccc1-c1ccccc1)N(CCC(C)C)CCC2 [NCGC00420437] | 15.3
COc1ccc(NC(=O)C(c2ccc(Cl)cc2)C(C)C)cn1 (stereo not shown) [MLS001149289] | 88.5
COc1ccccc1CNCC(O)Cn1c2ccccc2c2ccccc21 (stereo not shown) [MLS000391556] | 92.6
Cc1ccc(C)c2sc(N3CCN(C(=O)c4ccc([N+](=O)[O-])o4)CC3)nc12 [MLS001234268] | 94.7
O=C(Nc1ccc(C2=NCCN2)cc1)c1ccc(C(=O)Nc2ccc(C3=NCCN3)cc2)c(Cl)c1 [MLS000737368] | 90
Cc1nnsc1[S+]([O-])c1ccc(Cl)cc1 (stereo not shown) [MLS001166465] | 96.9
CC(C)c1ccccc1OCC(O)CN(CC(O)COc1cccc2ccccc12)C(C)C (stereo not shown) [MLS001179995] | 100
N#Cc1nc(Nc2cc(F)cc(F)c2)c2ncn(CC(F)F)c2n1 [MLS002471784] | 90
COc1cc2nc(Nc3cccc(F)c3)nc(N)c2cc1OC [NCGC00107351] | 101
O=C(Nc1ccc(C(F)(F)F)cc1)N1CCN(c2ccnc3cc(Cl)ccc23)CC1 [MLS000830170] | 90.8
Oc1c(CN2CCN(c3ccccn3)CC2)cc(Cl)c2cccnc12 [NCGC00055619] | 77.4
CCN1CCN(Cc2ccc(NC(=O)c3cc(NC(=O)c4cncc(-c5ccc(C#N)cc5)c4)cc(OC)c3)cc2C(F)(F)F)CC1 [MLS000911575] | 99.9

Structure (SMILES) | viability at 3 µM [%]
CCCCc1cc(=O)oc2cc(C)cc(OCC(=O)Nc3cccnc3)c12 [MLS001160046] | 96.3
CCOC(=O)c1c(CN(C)C)n(-c2ccc(C)cc2)c2cc(Br)c(O)cc12 [MLS000705141] | 97.3
OCC[n+]1ccc(/C=C/c2c[nH]c3ccccc23)cc1 [MLS000585200] | 90.7
CCCc1c(CC)c(=N)c2ccccc2n1C [MLS000080101] | 83.6
O[C@H]1[C@H](NCC2CCCCC2)[C@H]2CO[C@H](O2)[C@@H]1N1CCC(Cc2ccccc2)CC1 [NCGC00394729] | 99.2
CCOC(=O)c1nnn(-c2nonc2N)c1-c1ccc(Br)cc1 [MLS000727795] | 96.5
CC[C@@]1(c2ccccc2OC)ON(c2ccccc2C(F)(F)F)C1=O [MLS002206609] | 92.6
CN1CCN(c2ccc(NC(=O)c3ccc(-c4cccc([N+](=O)[O-])c4)o3)cc2)CC1 [MLS000663772] | 107
c1ccc(-c2cccc(-c3ccccn3)n2)nc1 [MLS000048666] | 19.2
CC(C(=O)N1CCCC1)N1CCN(S(=O)(=O)c2ccc(C(C)(C)C)cc2)CC1 (stereo not shown) [MLS002156464] | 92.8
CC(Oc1ccc(F)cc1)C(=O)Nc1cc(C(F)(F)F)ccc1-n1cncn1 (stereo not shown) [MLS001160637] | 101
Cc1ccnc2nc(C(=O)Nc3cc(Cl)ccc3N3CCOCC3)nn12 [MLS000567033] | 98.5
CCN(CC)c1ccc(NC(=O)COc2ccccc2C#N)cc1S(=O)(=O)Nc1ccccc1OC [MLS000339599] | 97.1
O=C(Nc1ccc2c(N3CCCCC3)ncnc2c1)c1cc(F)cc(F)c1 [NCGC00425525] | 53.4
Cc1nn2c(c1-c1ccccc1-c1ccccc1)N(CC1CC1)CCC2 [NCGC00420435] | 49.8
CCOc1ccccc1NC(=O)Cn1c(-c2ccc(Cl)cc2)noc1=O [MLS000529487] | 86.9
COc1ccc(OC)c(-n2c(-c3cccc(O)c3)n[nH]c2=S)c1 [MLS000089016] | 93.1
Cc1cc(C)[n+](C)n1CC(O)Cn1c2ccccc2c2ccccc21 (stereo not shown) [MLS000711524] | 104
O=C(Nc1ccc(N2CCN(c3ncccc3C(F)(F)F)CC2)nc1)c1cccs1 [MLS000862045] | 92
CCOC(=O)c1sc2nc3c(SCCC#N)cc(C(=O)c4cc(F)ccc4O)cn3c(=O)c2c1C [MLS000393119] | 91.3
O[C@H]1[C@H]2c3cc4c(cc3CN3CCC(=C[C@@H]1O)[C@@H]23)OCO4 [NCGC00262562] | 83.5
Cc1ccc(O)c(-c2cc(C(=O)Nc3ccc(S(=O)(=O)N4CC(C)OC(C)C4)cc3)n[nH]2)c1 (stereo not shown) [MLS000042695] | 87.1

Structure (SMILES) | viability at 3 µM [%]
O=C(Nc1ncccc1O)c1ccc(S(=O)(=O)Nc2ccccc2)cc1 [MLS001099437] | 94.2
CC(C)c1ccc(CC(=O)N2CCCc3ncc(C(=O)Nc4cccnc4)cc32)cc1 [NCGC00420003] | 45.1
COc1cccc(-c2c(C#N)c(N)nc3c2c(C)nn3-c2ccccc2)c1O [MLS001214341] | 90.5
OC(c1ccc(Cl)cc1)C(CN1CCOCC1)c1ccccc1 (stereo not shown) [MLS001173582] | 99.6
O=[N+]([O-])c1ccc(N2CCN(/C(S)=N/C3CCCCC3)CC2)cc1 [MLS000574247] | 99.2
O=C(CCCCCCC(=O)Nc1ccccc1)NO [NCGC00168085] | 45.6
COc1ccccc1CNC(=O)CCn1c(=O)[nH]c2ccsc2c1=O [MLS000044764] | 109
COc1ccc(CCC(=O)N2Cc3ccccc3OC3(CCN(C)CC3)C2)cc1 [NCGC00456460] | 106
O=C1C(=O)c2ncccc2-c2cccnc21 [NCGC00160369] | 24.2
CCOC(=O)C1CCN(C(=O)c2cc(C(C)(C)C)nn2Cc2ccccc2)CC1 [MLS000860456] | 90.8
Clc1ncnc2scc(-c3ccc(Br)cc3)c12 [MLS000591637] | 99.5
COc1cc(OC)c(NC2=CC(=O)C(=O)c3ccccc32)cc1Cl [MLS001198657] | 62
C/C(=N\NC(=O)c1ccccc1OCc1ccc(F)cc1)c1ccccn1 [MLS002162875] | 82
COc1cc(C(=O)OCC(=O)N2CCCCC2C)cc(NC(=O)c2cccs2)c1OC (stereo not shown) [MLS001003405] | 97.3
CCN(CC)CC(O)COc1ccccc1C(=O)CCc1ccccc1 (stereo not shown) [MLS000107538] | 104
CCN(CC)CCCN(c1ccccc1)C1Cc2ccccc2C1 [NCGC00167576] | 99.6
COc1cc(Cl)c(NC2=CC(=O)C(=O)c3ccccc32)c(OC)c1 [MLS001360325] | 65.1
CC1(C)N=C(N)N=C(N)N1c1ccc(OCCCOc2ccccc2)c(Cl)c1 [MLS000738223] | 34.6
C/C(=N\Nc1nc(-c2ccccc2O)nc2ccccc12)c1ccccc1 [MLS000714167] | 93.6
Oc1ccc(-c2ccccc2)cc1CN1CCCCCC1 [MLS001195126] | 104
CN(C)CCCn1cnc2c(c1=N)C(c1ccccc1)c1ccc3ccccc3c1O2 (stereo not shown) [MLS001216375] | 106
COc1ccc(C2Sc3ccccc3N=C3C2=C(O)c2ccccc23)c(OC)c1OC (stereo not shown) [NCGC00108825] | 43.7

Structure (SMILES) | viability at 3 µM [%]
CCCC(=O)NC(c1ccccc1OC)c1ccc2cccnc2c1O (stereo not shown) [MLS000715345] | 55.4
COc1cc(NC(=O)c2cc([N+](=O)[O-])ccc2NC(=O)CNC2CCCCC2C)cc(OC)c1 (stereo not shown) [MLS000950459] | 90.2
Cc1ccc(S(=O)(=O)n2nccc2-c2c(-c3ccc(Cl)cc3)noc2C)cc1 [MLS001111122] | 101
Cc1noc(C)c1CSc1nc2sc3c(c2c(=O)n1C)CCCC3 [MLS000564913] | 89.9
COc1ccc2ccc(O)c(CN3CC=C(c4ccccc4)CC3)c2c1 [MLS000760157] | 97.2
CCOc1ccccc1NC(C)C(=O)Nc1cc(C(F)(F)F)ccc1N1CCOCC1 (stereo not shown) [MLS000336343] | 99.6
O=C(Nc1ccc(Br)cc1)c1ccc(F)c([S+](=O)([O-])NC2CCCCCC2)c1 [NCGC00139407] | 78.6
COc1ccccc1Nc1cnc2ccc(-c3ccc(OC)c(OC)c3)nn12 [NCGC00412573] | 82.7
CCOc1ccc(C(C)NC(S)=NC2CCCCC2)cc1OCC (stereo not shown) [MLS001007596] | 95.1
Cc1ccc(CNCc2cc3c(C(C)(C)C)nn(-c4ccccc4)c3[nH]c2=O)cc1 [MLS000067257] | 106
CCCC(=O)NC(c1ccc(OC)cc1)c1ccc2cccnc2c1O (stereo not shown) [MLS000715379] | 59.7
Cc1nc2ccc(NC(=O)c3cc(S(=O)(=O)N(C)c4ccccc4)ccc3Cl)cc2s1 [MLS000393823] | 59.7
COc1ccc([C@@]2(C(C)C)ON(c3ccccc3C(F)(F)F)C2=O)cc1 [MLS002206606] | 83.8
CC1CC(C)CN(C(=O)c2ccc3ccccc3c2)C1 (stereo not shown) [MLS001161774] | 90.9
CCOC(=O)c1c(NC(=O)C[n+]2ccc(N(C)C)cc2)sc(C)c1C [MLS000710762] | 65.1
Cc1ccc(Sc2ccc(NC(=O)CCl)cc2)cc1C [MLS000334846] | 93.9
Clc1ccc2c(N/N=C/c3cccc(Br)c3)ccnc2c1 [MLS000336198] | 87.2
COc1cc(NS(C)(=O)=O)ccc1Nc1c2ccccc2nc2ccccc12 [MLS002153376] | 84.3
Oc1ccc(CN2CCCCC2)nc1-c1ccccc1 [MLS000031925] | 99.7
